Earlier results on four compounds are cited in PubChem BioAssay AID1259409 (Chemical Carcinogenesis Research Information System (CCRIS), 2018).

Values joined by “and” are separate entries in the source; they are usually repeats but may differ in a detail not shown here. Equal entries are not always repeated.

This data set deals with rodent chemically induced tumor inhibition, incidence and multiplicity. Put plainly: CCRIS tumor inhibitor studies. The note with it: Dose [Inhibitor]: 0; for outcome: Carcinogen: DIETHYLNITROSAMINE [55-18-5], 0.005, 0.5, 500 PPM FOR 11 OR 43 WKS BEGINNING 1 WK AFTER CARCINOGEN (STUDY DURATION: 45 WKS), Route [Inhibitor]: DIET, Dose [Carcinogen]: 100 MG/KG BW TWICE AT 1 WK INTERVALS (STUDY DURATION: 45 WKS).

Take `CCCCCCCCCCCCN=C=S`: the “tumour outcome (control, treated, inhibition, significance)” value runs as follows: (Carcinogen: 4(METHYLNITROSAMINO)-1-(3-PYRIDYL)-1-BUTANONE, 64091-91-4, 1 UMOL IN 0.1 ML CORN OIL ONCE 2 HR PRIOR TO CARCINOGEN DOSE (STUDY DURATION: 16 WK), Route [Inhibitor]: GAVAGE, Species: MOUSE, Strain/Sex: STRAIN-A/FEMALE, Target Tissue: Type of Lesion: LUNG: ADENOMA, Dose [Carcinogen]: 10 UMOL IN 0.1 ML SALINE ONCE, Promoter: NONE USED) 100%, 35%, 65%, p<0.001; (Carcinogen: 4-(METHYLNITROSAMINO)-1-(3-PYRIDYL)-1-BUTANONE, 64091-91-4, 1 UMOL ONCE 2 HR PRIOR TO CARCINOGEN DOSE (STUDY DURATION: 16 WK), Route [Inhibitor]: GAVAGE, Species: MOUSE, Strain/Sex: STRAIN-A/FEMALE, Target Tissue: Type of Lesion: LUNG: ADENOMA, Dose [Carcinogen]: 10 UMOL IN 0.1 ML SALINE ONCE, Promoter: NONE USED) 100%, 35%, 65%, p<0.05; (Carcinogen: 4-(METHYLNITROSAMINO)-1-(3-PYRIDYL)-1-BUTANONE, 64091-91-4, 5 UMOL ONCE 2 HR PRIOR TO CARCINOGEN DOSE (STUDY DURATION: 16 WK), Route [Inhibitor]: GAVAGE, Species: MOUSE, Strain/Sex: STRAIN-A/FEMALE, Target Tissue: Type of Lesion: LUNG: ADENOMA, Dose [Carcinogen]: 10 UMOL IN 0.1 ML SALINE ONCE, Promoter: NONE USED) 100%, 25%, 75%, p<0.05.
Take `CC1(C)OC(=O)C=C[C@]2(C)[C@H]3CC[C@@]4(C)[C@H](c5ccoc5)OC(=O)[C@H]5O[C@]54[C@]3(C)C(=O)C[C@@H]12`: the “tumour outcome (control, treated, inhibition, significance)” value (Carcinogen: AZOXYMETHANE, 25843-45-2, 0.05% IN DIET FOR 35 WK BEGINNING 1 WK POST CARCINOGEN LAST DOSE (STUDY DURATION: 38 WK), Route [Inhibitor]: ORAL, Species: RAT, Strain/Sex: F344/MALE, Target Tissue: Type of Lesion: COLON: ADENOCARCINOMA, Dose [Carcinogen]: 20 MG/KG BW 1/WK FOR 2 WK) was 18/25 (72%), 2/16 (13%), 82%, p=0.0002 and 18/25 (72%), 4/16 (25%), 65%, p=0.004.
As to `Clc1ccc(C(c2ccc(Cl)cc2)C(Cl)(Cl)Cl)cc1`, the outcome reads like this: (Species: RAT, Strain/Sex: F344/MALE, Target Tissue: Type of Lesion: LIVER: HEPATOCELLULAR ADENOMA) 55%; 65%, -18%; 50%, 9%; 100%, -82%; (Species: RAT, Strain/Sex: F344/MALE, Target Tissue: Type of Lesion: LIVER: HEPATOCELLULAR CARCINOMA) 60%; 30%, 50%; 65%, -8%; 100%, -67%. The “tumour outcome (control, treated, inhibition, significance)” value is, setting by setting: (7.5 MG 2/WK FOR 14 WK BEGINNING SIMULTANEOUSLY WITH CARCINOGEN TREATMENT (STUDY DURATION: 1 YR), Route [Inhibitor]: GAVAGE, Species: RAT, Strain/Sex: WISTAR/MALE, Target Tissue: Type of Lesion: LIVER: BENIGN TUMORS, Dose [Carcinogen]: 50 UG 2/WK FOR WK 1-4 OF STUDY THEN 75 UG 2/WK FOR WK 5-8, Promoter: NONE USED) 22/25 (88%), 9/21 (43%), 51%, p<0.001; (7.5 MG 2/WK FOR 14 WK BEGINNING SIMULTANEOUSLY WITH CARCINOGEN TREATMENT (STUDY DURATION: 1 YR), Route [Inhibitor]: GAVAGE, Species: RAT, Strain/Sex: WISTAR/MALE, Target Tissue: Type of Lesion: LIVER: CARCINOMA, Dose [Carcinogen]: 50 UG 2/WK FOR WK 1-4 OF STUDY THEN 75 UG 2/WK FOR WK 5-8, Promoter: NONE USED) 14/25 (56%), 7/21 (33%), 41%, p<0.07.
Consider `COc1cc2c(cc1OC)[C@@H]1C(=O)c3ccc4c(c3O[C@@H]1CO2)C=CC(C)(C)O4`, for which the “tumour outcome (control, treated, inhibition, significance)” value (Carcinogen: 7,12-DIMETHYLBENZ[A]ANTHRACENE, 57-97-6, 33 UG 2/WK FOR 15 WK APPLIED 1 HR PRIOR TO EACH PROMOTER DOSE (STUDY DURATION: 15 WK), Route [Inhibitor]: DERMAL, Species: MOUSE, Strain/Sex: CD-1/FEMALE, Target Tissue: Type of Lesion: SKIN: TUMOR, Dose [Carcinogen]: 100 UG ONCE, Promoter: 12-O-TETRADECANOYLPHORBOL-13-ACETATE, 16561-29-8) is recorded as 60%, 10%, 83%, p<0.05; the “tumour outcome (control, treated, inhibition, significance)” value (Carcinogen: 7,12-DIMETHYLBENZ[A]ANTHRACENE, 57-97-6, 330 UG 2/WK FOR 15 WK APPLIED 1 HR PRIOR TO EACH PROMOTER DOSE (STUDY DURATION: 15 WK), Route [Inhibitor]: DERMAL, Species: MOUSE, Strain/Sex: CD-1/FEMALE, Target Tissue: Type of Lesion: SKIN: TUMOR, Dose [Carcinogen]: 100 UG ONCE, Promoter: 12-O-TETRADECANOYLPHORBOL-13-ACETATE, 16561-29-8) is 60%, 0%, 100%, p<0.05; the “tumour outcome (control, treated, inhibition, significance)” value (Carcinogen: N-METHYL-N-NITROSOUREA, 684-93-5, 2 MG/KG BW 5 D/WK FOR DURATION OF STUDY BEGINNING 2 WK PRIOR TO CARCINOGEN DOSE (STUDY DURATION: 194 D), Route [Inhibitor]: GAVAGE, Species: RAT, Strain/Sex: SPRAGUE-DAWLEY/FEMALE, Target Tissue: Type of Lesion: MAMMARY GLAND: ADENOCARCINOMA, Dose [Carcinogen]: 50 MG/KG BW ONCE, Promoter: NONE USED) is listed as 100%, 100%, 0%, not significant; the “tumour outcome (control, treated, inhibition, significance)” value (Carcinogen: N-METHYL-N-NITROSOUREA, 684-93-5, 4 MG/KG BW 5 D/WK FOR DURATION OF STUDY BEGINNING 2 WK PRIOR TO CARCINOGEN DOSE (STUDY DURATION: 194 D), Route [Inhibitor]: GAVAGE, Species: RAT, Strain/Sex: SPRAGUE-DAWLEY/FEMALE, Target Tissue: Type of Lesion: MAMMARY GLAND: ADENOCARCINOMA, Dose [Carcinogen]: 50 MG/KG BW ONCE, Promoter: NONE USED) is 100%, 100%, 0%, not significant.
